Measurements: EP4644375A1, “SUBSTITUTED HYDROQUINOLINES FOR THE TREATMENT OF GLIOBLASTOMA MULTIFORME” (Molius Saglik Teknolojileri Anonim Sirketi, priority 2024, dated 2025)

Experiments:
[1] = system: U87-MG human glioma cell; test: Cell proliferation analysis (MTT); assay type: cell-based; conditions: for activity at 10 µM / inhibition at 10 µM: Homo sapiens, U-87 MG, 48 h; for activity at 10 µM / inhibition at 10 µM / Cell Proliferation (%): two days, MTT, 10 µM
[2] = system: U138-MG human glioma cell; test: Cell proliferation analysis (MTT); assay type: cell-based; conditions: 10 µM, two days, MTT; for activity at 10 µM / inhibition at 10 µM: Homo sapiens, 48 h

C=Cc1ccc(CN2C(=O)CCc3cc(OCCCCc4nnnn4C4CCCCC4)ccc32)cc1 [TR-G107, 6-(4-(1-cyclohexyl-1H-tetrazol-5-yl)butoxy)-1-(4-vinylbenzyl)-3,4-dihydroquinolin-2(1H)-one] was tested, and the activity at 10 µM [1] was 47%, the inhibition at 10 µM [1] was 53% and the “top 5 target compounds whose treatment resulted in the lowest proliferation” value ([1]; ranking) was “top 5”. The activity at 10 µM [2] was 103% and the inhibition at 10 µM [2] was -3%.
For O=C1CCc2cc(OCCCCc3nnnn3C3CCCCC3)ccc2N1Cc1ccccc1 [TR-G110, 1-benzyl-6-(4-(1-cyclohexyl-1H-tetrazol-5-yl)butoxy)-3,4-dihydroquinolin-2(1H)-one], the activity at 10 µM [1] was 58%, the inhibition at 10 µM [1] was 42% and the activity at 10 µM [2] was 69%. It also gave an inhibition at 10 µM [2] of 31%.
In the case of O=C1CCc2cc(OCCCCc3nnnn3C3CCCCC3)ccc2N1Cc1ccc(Cl)cc1 [TR-G111, 1-(4-chlorobenzyl)-6-(4-(1-cyclohexyl-1H-tetrazol-5-yl)butoxy)-3,4-dihydroquinolin-2(1H)-one], the “Cell Proliferation (%)” value [1] is reported as 68%, the inhibition at 10 µM [1] is reported as 32% and the “Cell Proliferation (%)” value [2] is reported as 91%. For the same molecule, the inhibition at 10 µM [2] was 9%.
O=C1CCc2cc(OCCCCc3nnnn3C3CCCCC3)ccc2N1Cc1ccc(F)cc1 [TR-G112, 6-(4-(1-cyclohexyl-1H-tetrazol-5-yl)butoxy)-1-(4-fluorobenzyl)-3,4-dihydroquinolin-2(1H)-one] was tested, and the activity at 10 µM [1] was 60%, the inhibition at 10 µM [1] was 41% and the activity at 10 µM [2] was 43%. It also gave an inhibition at 10 µM [2] of 58%.
Work on C=CCOC(=O)N1C(=O)CCc2cc(OCCCCc3nnnn3C3CCCCC3)ccc21 [TR-G114, Allyl 6-(4-(1-cyclohexyl-1H-tetrazol-5-yl)butoxy)-2-oxo-3,4-dihydroquinoline-1(2H)-carboxylate] yielded an activity at 10 µM [1] of 86%, an inhibition at 10 µM [1] of 14% and an activity at 10 µM [2] of 85%. The inhibition at 10 µM [2] was 15%.
For O=C1CCc2cc(OCc3cc(-c4c(F)cccc4Cl)no3)ccc2N1 [TR-G116, 6-((3-(2-chloro-6-fluorophenyl)isoxazol-5-yl)methoxy)-3,4-dihydroquinolin-2(1H)-one], the “Cell Proliferation (%)” value [1] was 93%, the inhibition at 10 µM [1] was 7% and the “Cell Proliferation (%)” value [2] was 59%. It also gave an inhibition at 10 µM [2] of 41%.
Molecule O=C1CCc2cc(OCc3cn(CCCN4C(=O)c5ccccc5C4=O)nn3)ccc2N1 [TR-G117, 2-(3-(4-(((2-oxo-1,2,3,4-tetrahydroquinolin-6-yl)oxy)methyl)-1H-1,2,3-triazol-1-yl)propyl)isoindoline-1,3-dione] has an activity at 10 µM [1] of 96%, an inhibition at 10 µM [1] of 4% and an activity at 10 µM [2] of 106%. For the same molecule, the inhibition at 10 µM [2] was -6%.
O=C(COc1ccc2c(c1)CCC(=O)N2)Nc1ccc(N2CCOCC2)cc1 [TR-G120, N-(4-morpholinophenyl)-2-((2-oxo-1,2,3,4-tetrahydroquinolin-6-yl)oxy)acetamide] gave an activity at 10 µM [1] of 68%, an inhibition at 10 µM [1] of 33% and an activity at 10 µM [2] of 67%. It also gave an inhibition at 10 µM [2] of 34%.
Work on O=C(COc1ccc2c(c1)CCC(=O)N2)Nc1ccc([N+](=O)[O-])cn1 [TR-G122, N-(5-nitropyridin-2-yl)-2-((2-oxo-1,2,3,4-tetrahydroquinolin-6-yl)oxy)acetamide] yielded an activity at 10 µM [1] of 82%, an inhibition at 10 µM [1] of 18% and an activity at 10 µM [2] of 90%. For the same molecule, the inhibition at 10 µM [2] was 11%.
In the case of O=C(COc1ccc2c(c1)CCC(=O)N2)Nc1ccc(Br)cc1 [TR-G123], the activity at 10 µM [1] is reported as 92%, the inhibition at 10 µM [1] is reported as 8% and the activity at 10 µM [2] is reported as 109%. The inhibition at 10 µM [2] was -9%.
For CCCCCCn1cc(COc2ccc3c(c2)CCC(=O)N3)nn1 [TR-G125, 6-((1-hexyl-1H-1,2,3-triazol-4-yl)methoxy)-3,4-dihydroquinolin-2(1H)-one], the activity at 10 µM [1] was 64%, the inhibition at 10 µM [1] was 36% and the activity at 10 µM [2] was 82%. It also gave an inhibition at 10 µM [2] of 18%.
NC(=O)COCCOc1ccc2c(c1)CCC(=O)N2 [TR-G126, 2-(2-((2-oxo-1,2,3,4-tetrahydroquinolin-6-yl)oxy)ethoxy)acetamide] was tested, and the activity at 10 µM [1] was 70%, the inhibition at 10 µM [1] was 30% and the activity at 10 µM [2] was 97%. For the same molecule, the inhibition at 10 µM [2] was 3%.
In the case of CC(C)N(C(=O)Oc1ccc2c(c1)CCC(=O)N2)C(C)C [TR-G129, 2-oxo-1,2,3,4-tetrahydroquinolin-6-yl diisopropylcarbamate], the activity at 10 µM [1] is reported as 81%, the inhibition at 10 µM [1] is reported as 19% and the activity at 10 µM [2] is reported as 74%. For the same molecule, the inhibition at 10 µM [2] was 26%.
Molecule O=C1CCc2cc(OC(=O)Nc3ccccc3)ccc2N1 [TR-G131, 2-oxo-1,2,3,4-tetrahydroquinolin-6-yl phenylcarbamate] has an activity at 10 µM [1] of 79%, an inhibition at 10 µM [1] of 21% and an activity at 10 µM [2] of 54%. It also gave an inhibition at 10 µM [2] of 46%.
COc1ccccc1NC(=O)Oc1ccc2c(c1)CCC(=O)N2 [TR-G132, 2-oxo-1,2,3,4-tetrahydroquinolin-6-yl (2-methoxyphenyl)carbamate] gave an activity at 10 µM [1] of 78%, an inhibition at 10 µM [1] of 22% and an activity at 10 µM [2] of 73%. For the same molecule, the inhibition at 10 µM [2] was 27%.
O=C1CCc2cc(OC(=O)Nc3ccc([N+](=O)[O-])cc3)ccc2N1 [TR-G133, 2-oxo-1,2,3,4-tetrahydroquinolin-6-yl (4-nitrophenyl)carbamate] showed an activity at 10 µM [1] of 93%, an inhibition at 10 µM [1] of 7% and an activity at 10 µM [2] of 77%. The inhibition at 10 µM [2] was 23%.
With Cc1ccccc1NC(=O)Oc1ccc2c(c1)CCC(=O)N2 [TR-G134, 2-oxo-1,2,3,4-tetrahydroquinolin-6-yl-o-tolylcarbamate] the “Cell Proliferation (%)” value [1] was 70%, the inhibition at 10 µM [1] was 30% and the “Cell Proliferation (%)” value [2] was 73%. For the same molecule, the inhibition at 10 µM [2] was 27%.
Work on O=C1CCc2cc(OC(=O)Nc3cccc4ccccc34)ccc2N1 [TR-G135, 2-oxo-1,2,3,4-tetrahydroquinolin-6-yl naphthalene-1-ylcarbamate] yielded an activity at 10 µM [1] of 71%, an inhibition at 10 µM [1] of 29% and an activity at 10 µM [2] of 80%. The inhibition at 10 µM [2] was 20%.
In the case of O=C1CCc2cc(OC(=O)Nc3ccccc3Br)ccc2N1 [TR-G136, 2-oxo-1,2,3,4-tetrahydroquinolin-6-yl (2-bromophenyl)carbamate], the “Cell Proliferation (%)” value [1] is reported as 89%, the inhibition at 10 µM [1] is reported as 11% and the “Cell Proliferation (%)” value [2] is reported as 60%. For the same molecule, the inhibition at 10 µM [2] was 40%.
For O=C1CCc2cc(OC(=O)Nc3ccccc3C(F)(F)F)ccc2N1 [TR-G137, 2-oxo-1,2,3,4-tetrahydroquinolin-6-yl (2-(trifluoromethyl)phenyl)carbamate], the activity at 10 µM [1] was 73%, the inhibition at 10 µM [1] was 27% and the activity at 10 µM [2] was 60%. The inhibition at 10 µM [2] was 40%.
For O=C(COc1ccc2c(c1)CCC(=O)N2)N/N=C/c1cccc(Oc2ccc(Cl)cc2)c1 [TR-G138, (E)-N'-(3-(4-chlorophenoxy)benzylidene)-2-((2-oxo-1,2,3,4-tetrahydroquinolin-6-yl)oxy)acetohydrazide], the inhibition at 10 µM [1] was 50% and the inhibition at 10 µM [2] was 35%.
Work on O=C1CCc2cc(OC(=O)c3cccc(F)c3)ccc2N1 [TR-G139, 2-oxo-1,2,3,4-tetrahydroquinolin-6-yl 3-flurobenzoate] yielded an activity at 10 µM [1] of 71%, an inhibition at 10 µM [1] of 29% and an activity at 10 µM [2] of 83%. It also gave an inhibition at 10 µM [2] of 17%.
O=C1CCc2cc(OC(=O)Nc3ccc(F)cc3)ccc2N1 [TR-G140, 2-oxo-1,2,3,4-tetrahydroquinolin-6-yl (4-fluorophenyl)carbamate] gave an activity at 10 µM [1] of 80%, an inhibition at 10 µM [1] of 20% and an activity at 10 µM [2] of 91%. The inhibition at 10 µM [2] was 9%.
O=C(COc1ccc2c(c1)CCC(=O)N2)N/N=C/c1cccc2ccccc12 [TR-G141, (E)-N'-(naphthalen-1-ylmethylene)-2-((2-oxo-1,2,3,4-tetrahydroquinolin-6-yl)oxy)acetohydrazide] showed an activity at 10 µM [1] of 53%, an inhibition at 10 µM [1] of 47% and an activity at 10 µM [2] of 65%. It also gave an inhibition at 10 µM [2] of 35%.
O=C1CCc2cc(OCc3cc(-c4ccc(F)cc4)no3)ccc2N1 [TR-G142, 6-((3-(4-fluorophenyl)isoxazol-5-yl)methoxy)-3,4-dihydroquinolin-2(1H)-one] was tested, and the activity at 10 µM [1] was 55%, the inhibition at 10 µM [1] was 46% and the activity at 10 µM [2] was 70%. The inhibition at 10 µM [2] was 30%.
C=CCCCOc1ccc2c(c1)CCC(=O)N2 [TR-G144, 6-(pent-4-en-i-yloxy)-3,4-dihydroquinolin-2(1H)-one] was tested, and the activity at 10 µM [1] was 61%, the inhibition at 10 µM [1] was 39% and the activity at 10 µM [2] was 70%. For the same molecule, the inhibition at 10 µM [2] was 30%.
For O=C(COc1ccc2c(c1)CCC(=O)N2)N/N=C/c1ccc(-c2ccccc2)cc1 [TR-G145, (E)-N'-([1,1'-biphenyl}-4-ylmethylene)-2-((2-oxo-1,2,3,4-tetrahydroquinolin-6-yl)oxy)acetohydrazide], the activity at 10 µM [1] was 49%, the inhibition at 10 µM [1] was 51% and the activity at 10 µM [2] was 59%. It also gave an inhibition at 10 µM [2] of 41%.
With O=C(COc1ccc2c(c1)CCC(=O)N2)N/N=C/c1ccc(-c2ccc(Cl)cc2)cc1 [TR-G146, (E)-N'-((4'-chloro-[1,1'-biphenyl)-4-yl)methylene)-2-((2-oxo-1,2,3,4-tetrahydroquinolin-6-yl)oxy)acetohydrazide] the inhibition at 10 µM [1] was 37% and the inhibition at 10 µM [2] was 21%.
CC(=O)CCn1cc(COc2ccc3c(c2)CCC(=O)N3)nn1 [TR-G147, 6-((1-(3-oxobutyl)-1H-1,2,3-triazol-4-yl)methoxy)-3,4-dihydroquinolin-2(1H)-one] was tested, and the activity at 10 µM [1] was 89%, the inhibition at 10 µM [1] was 11% and the activity at 10 µM [2] was 122%. For the same molecule, the inhibition at 10 µM [2] was -22%.
In the case of O=C1CCc2cc(OCC3CC(c4c(F)cccc4Cl)=NO3)ccc2N1 (stereo not drawn) [TR-G150, 6-((3-(2-chloro-6-fluorophenyl)-4,5-dihydroisoxazol-5-yl)methoxy)-3,4-dihydroquinolm-2(1H)-one], the activity at 10 µM [1] is reported as 97%, the inhibition at 10 µM [1] is reported as 3% and the activity at 10 µM [2] is reported as 79%. The inhibition at 10 µM [2] was 21%.
